According to patent publication US20030220254A1, “Composition and method for preparation of an oral dual controlled release formulation of a protein and inhibitor” (TEXAS TECH UNIVERSITY SYSTEM, priority 2002, published 2003):

Legend:
[1] = tested on: trypsin and α-chymotrypsin; assay: Stability of sCT with trypsin and α-chymotrypsin added together, with TkOVM; type: biochemical; conditions: pH 8, no inhibitor, read-out: Half-life (min) of hydrolysis of sCT
Procedure: sCT solutions (50 μM) were incubated at 37° C. in 50 mM Tris buffer containing 0.1 mM calcium chloride (pH 8.0). Degradation profiles generated in the presence of 0.5 μM trypsin and 0.1 μM α-chymotrypsin served as controls. The concentrations were selected on the basis of a reported study (Schilling R. J. and Mitra A. K. 1991). DkOVM and TkOVM were evaluated at different enzyme-to-inhibitor ratios to evaluate their inhibition of sCT degradation. CkOVM and aprotinin were used at 1:1 enzyme-to-inhibitor ratio in order to compare the efficacy of various protease inhibitors used. sCT and enzyme solutions were incubated for 15 min at 37° C. before starting the experiments. Samples were taken after 0, 5, 15, 30 and 60 min and immediately diluted with cold 1% trifluoroacetic acid (TFA) to reduce the pH to 2.5. The samples were analysed at 4° C. by HPLC given below. […] The study was also conducted by incubating 50 μM sCT solutions with 0.5 μM trypsin and 0.1 μM α-chymotrypsin added together and the efficacy of TkOVM was evaluated at various ratios.
sCT was analyzed by means of our validated HPLC method (Shah R B, et al., 2003). […] 50 μl of samples were injected into the column which were analyzed by the reversed phase HPLC method. […] Concentrations of sCT were quantified from integrated peak areas and calculated by interpolation from an according standard curve.

[2] = in vitro; type: in vitro ADME; conditions: goat, real gastrointestinal fluid or homogenate, pH 7.4
Procedure: Goat intestinal homogenate was prepared using a reported method for preparation of intestinal homogenate with minor modifications (Yamamoto et al., 1990). Briefly, fresh goat intestinal tissues, obtained from a local slaughter house, were washed with phosphate buffered saline (PBS) pH 7.4 at 4° C. and stored at −80° C. Immediately before each experiment, specimens were thawed at room temperature and then were washed again with PBS at 4° C. 25 g of tissue was cut from the small intestinal region and was homogenized in 10 ml PBS at 4° C. by use of a mechanical homogenizer for 5 min. The homogenate was centrifuged at 5000 g in a refrigerated (4° C.) centrifuge for 10 min to remove cellular and nuclear debris. The resulting supernatant was assayed for protein content by BCA assay with bovine serum albumin as the standard. The supernatant was also assayed for trypsin and chymotrypsin content.
(§1) The degradation of sCT was studied by incubating the sCT solution to a final concentration of 50 μM with 900 μl Caco-2 cell and goat intestinal homogenates. The samples were withdrawn at 0 and 60 min and were diluted immediately with cold TFA 1%. The samples containing intestinal homogenate were centrifuged at 5000 g for 10 min to remove precipitated proteins. The supernatant was injected into HPLC to determine the sCT content.

[3] = tested on: Caco-2 cell homogenate; assay: Stability of sCT in Caco-2 cell homogenate; type: in vitro ADME, Human; conditions: Caco-2 homogenate, sCT 50 μM
Procedure: Human colon adenocarcinoma (Caco-2) cells were cultured, in an atmosphere of 5% CO2 at 37° C. in T-75 tissue culture flasks using DMEM supplemented with 10% FBS, 100 U/ml penicillin, 100 μg/ml streptomycin, 1.25 ml human Transferrin. The medium was changed every other day until the flasks reached 90% confluence (3-4 days). Caco-2 cells of less than 20 passages were used. Caco-2 homogenate was prepared according to the method of Augustijns et al. with slight modification. Briefly, the Caco-2 monolayer was washed three times with ice-cold PBS (pH 7.4). The cells were scraped off with a tissue culture scraper on ice and homogenized in 1 ml ice-cold PBS using a mechanical homogenizer. The mixture was centrifuged at 12,000 rpm for 10 min at 4° C. The resultant supernatant was used as Caco-2 homogenate. The protein content was determined using BCA assay. Tryspin and chymotrypsin assay was done for the homogenate as described below.
as §1

[4] = target: α-chymotrypsin (Bos taurus, UniProt P00766); assay: Stability of sCT in the presence of α-chymotrypsin and protease inhibitors; type: biochemical; set-up: half-life: dose or concentration left out as unconfirmed; conditions: no inhibitor
Procedure: (§2) sCT solutions (50 μM) were incubated at 37° C. in 50 mM Tris buffer containing 0.1 mM calcium chloride (pH 8.0). Degradation profiles generated in the presence of 0.5 μM trypsin and 0.1 μM α-chymotrypsin served as controls. The concentrations were selected on the basis of a reported study (Schilling R. J. and Mitra A. K. 1991). DkOVM and TkOVM were evaluated at different enzyme-to-inhibitor ratios to evaluate their inhibition of sCT degradation. CkOVM and aprotinin were used at 1:1 enzyme-to-inhibitor ratio in order to compare the efficacy of various protease inhibitors used. sCT and enzyme solutions were incubated for 15 min at 37° C. before starting the experiments. Samples were taken after 0, 5, 15, 30 and 60 min and immediately diluted with cold 1% trifluoroacetic acid (TFA) to reduce the pH to 2.5. The samples were analysed at 4° C. by HPLC given below. Plots of sCT remaining against time were generated. […] (amount of sCT (%) remaining after 60 min) were used to compare the efficacy of the ovomucoids. Similar studies were performed with aprotinin. The study was also conducted by incubating 50 μM sCT solutions with 0.5 μM trypsin and 0.1 μM α-chymotrypsin added together and the efficacy of TkOVM was evaluated at various ratios.
(§3) sCT was analyzed by means of our validated HPLC method (Shah R B, et al., 2003). Briefly, a computer controlled Varian Chromatography workstation consisting of the following components was used: Two Dynamax SD-200 pumps, an AI-200A autosampler fitted with a 100 μl injection loop, a Dynamax UV-1 detector and Star 5.3 chromatography software. Room temperature was maintained for the column and chromatographic separations were carried out on a C-18 Vydac 218MS54 column (5 μm, 4.6×250 mm) with a pore size of 300 Å. 50 μl of samples were injected into the column which were analyzed by the reversed phase HPLC method. The mobile phase consisted of 0.05% v/v TFA-Water (A) and 0.05% v/v TFA-Acetonitrile (B). The gradient conditions were 20-35% B for 10 min, 35-37% B from 10th to 20th min and 37-20% B from 20th to 25th min at a flow rate of 1 ml/min. […] Concentrations of sCT were quantified from integrated peak areas and calculated by interpolation from an according standard curve.

[5] = target: T1, trypsin (Bos taurus, UniProt P00760); assay: Stability of sCT in the presence of trypsin and protease inhibitors; type: biochemical; set-up: half-life: dose or concentration left out as unconfirmed
T1 construct: gene PRSS1
T1 sequence (P00760 24-246): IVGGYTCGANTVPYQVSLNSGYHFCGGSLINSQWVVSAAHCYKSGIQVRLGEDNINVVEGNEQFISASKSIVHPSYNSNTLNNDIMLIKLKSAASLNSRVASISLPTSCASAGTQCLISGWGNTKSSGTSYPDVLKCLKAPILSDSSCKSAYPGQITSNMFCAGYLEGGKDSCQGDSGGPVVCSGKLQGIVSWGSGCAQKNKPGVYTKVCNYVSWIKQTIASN
Procedure: as §2, §3

With CC(C)C[C@H](NC(=O)[C@H](CCCCN)NC(=O)CNC(=O)[C@H](CC(C)C)NC(=O)[C@@H](NC(=O)[C@@H]1CSSC[C@H](N)C(=O)N[C@@H](CO)C(=O)N[C@@H](CC(N)=O)C(=O)N[C@@H](CC(C)C)C(=O)N[C@@H](CO)C(=O)N[C@@H]([C@@H](C)O)C(=O)N1)C(C)C)C(=O)N[C@@H](CO)C(=O)N[C@@H](CCC(N)=O)C(=O)N[C@@H](CCC(=O)O)C(=O)N[C@@H](CC(C)C)C(=O)N[C@@H](Cc1c[nH]cn1)C(=O)N[C@@H](CCCCN)C(=O)N[C@@H](CC(C)C)C(=O)N[C@@H](CCC(N)=O)C(=O)N[C@H](C(=O)N[C@@H](Cc1ccc(O)cc1)C(=O)N1CCC[C@H]1C(=O)N[C@@H](CCCNC(=N)N)C(=O)N[C@H](C(=O)N[C@@H](CC(N)=O)C(=O)N[C@H](C(=O)NCC(=O)N[C@@H](CO)C(=O)NCC(=O)N[C@H](C(=O)N1CCC[C@H]1C(N)=O)[C@@H](C)O)[C@@H](C)O)[C@@H](C)O)[C@@H](C)O [sCT, salmon calcitonin] the half-life at 50 μM [1] was 0.77 min, the remaining at 1 h, 50 μM [2] was 91.7 ± 17.6% and the “Amount (%) of sCT remaining at 60 min (I60)” value (shortened to “Amount (%) of sCT remaining”) [3] was 81.46 ± 10.89%. The “Amount (%) of sCT remaining” value ([4]; chymotrypsin 0.1 μM) was 16.18 ± 0.48%, the half-life ([4]; pH 8, α-chymotrypsin, read-out: Half-life (min) of hydrolysis of sCT) was 22.4 min and the “Amount (%) of sCT remaining” value ([5]; control, sCT 50 μM without enzyme) was 103.76 ± 3.10%. For the same molecule, the half-life ([5]; pH 8, trypsin, no inhibitor, read-out: Half-life (min) of hydrolysis of sCT) was 1.51 min and the “Amount (%) of sCT remaining” value ([5]; trypsin 0.5 μM, no inhibitor) was 0.00 ± 0.00%.
